Measurements as given in patent US10219516B2, “Molecules having pesticidal utility, and intermediates, compositions, and processes, related thereto” (priority 2015, dated 2019).
Like-named read-outs stand apart in the source and are kept apart here.

How the values were obtained:
Type in all cases: in vivo
[1] = tested on: Beet Armyworm (Spodoptera exigua, LAPHEG); assay: Bioassay on Beet Armyworm (BAW), 128-well diet tray assay
Procedure, shortened: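 Artificial diet surface-treated with 50 μg/cm^2 test molecule in 90:10 acetone-water, dried, then infested with one to five second instar larvae per well. Held covered and vented at 25° C., 14:10 light-dark for five to seven days; percent mortality recorded per well and averaged over eight wells.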

[2] = tested on: Yellow Fever Mosquito (Aedes aegypti, AEDSAE); assay: Bioassay on Yellow Fever Mosquito (YFM), 96-well plate larval assay; details: for YFM (Biological Results, rating): Species YFM (Yellow Fever Mosquito); for YFM rating: Yellow Fever Mosquito, 96-well plate larval assay
Experimental: Certain molecules disclosed in this document were tested against YFM using procedures described in the following paragraph. In the reporting of the results, the “GPA & YFM Rating Table” was used (See Table Section).
Master plates containing 400 μg of a molecule dissolved in 100 μL of dimethyl sulfoxide (DMSO) (equivalent to a 4000 ppm solution) are used. A master plate of assembled molecules contains 15 μL per well. To this plate, 135 μL of a 90:10 water/acetone mixture is added to each well. A robot is programmed to dispense 15 μL aspirations from the master plate into an empty 96-well shallow plate (“daughter” plate). There are 6 reps (“daughter” plates) created per master. The created “daughter” plates are then immediately infested with YFM larvae.
The day before plates are to be treated, mosquito eggs are placed in Millipore water containing liver powder to begin hatching (4 g. into 400 mL). After the “daughter” plates are created using the robot, they are infested with 220 μL of the liver powder/larval mosquito mixture (about 1 day-old larvae). After plates are infested with mosquito larvae, a non-evaporative lid is used to cover the plate to reduce drying. Plates are held at room temperature for 3 days prior to grading. After 3 days, each well is observed and scored based on mortality. The results are indicated in the table entitled “Table ABC: Biological Results” (See Table Section).

[3] = tested on: Cabbage Looper (Trichoplusia ni, TRIPNI); assay: Bioassay on Cabbage Looper (CL), 128-well diet tray assay; details: Trichoplusia ni; Cabbage Looper, 128-well diet tray assay; read-out: CL rating
Procedure, shortened: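 Test molecule is dissolved in 90:10 acetone-water and applied at 50 μg/cm^2 onto artificial diet, then dried. One to five second-instar larvae go into each of eight wells. Trays, sealed but vented, stay at 25° C., 14:10 light-dark, five to seven days, after which mortality is averaged.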

[4] = Beet Armyworm, 128-well diet tray assay, read-out: BAW rating

Compound	pest or weed control at 50 µg/cm2 [1, 4]	pest or weed control at 50 µg/cm2 [3]	also measured
O=C(Nc1ccc(F)cc1)c1cc(NC(=O)[C@H]2[C@H](c3cc(Cl)cc(Cl)c3)C2(Cl)Cl)c(Cl)cc1Cl (relative stereo) [F250, trans-2,4-Dichloro-5-(2,2-dichloro-3-(3,5-dichlorophenyl)cyclopropane-1-carboxamido)-N-(4-fluorophenyl)benzamide]			pest or weed control at 50 µg/cm2 ([1]; Species BAW (Beet Armyworm), read-out: BAW (Biological Results, rating)): 0 to 50%; YFM (Biological Results, rating) [2]: B (More than 0-Less than 80)
O=C(Nc1ccccc1)c1cc(NC(=O)[C@H]2[C@H](c3cc(Cl)cc(Cl)c3)C2(Cl)Cl)c(Cl)cc1Cl (relative stereo) [F254, trans-2,4-Dichloro-5-(2,2-dichloro-3-(3,5-dichlorophenyl)cyclopropane-1-carboxamido)-N-phenylbenzamide]			YFM (Biological Results, rating) [2]: A (80-100)
O=C(Nc1ccc(Cl)nn1)c1cc(NC(=O)[C@H]2[C@H](c3cc(Cl)cc(Cl)c3)C2(Cl)Cl)ccc1Cl (relative stereo) [PF148, trans-2-Chloro-N-(6-chloropyridazin-3-yl)-5-(2,2-dichloro-3-(3,5-dichlorophenyl)cyclopropane-1-carboxamido)benzamide]			YFM rating [2]: A (80-100)
O=C(Nc1ncc(F)cc1F)c1cc(NC(=O)[C@H]2[C@H](c3cc(Cl)cc(Cl)c3)C2(Cl)Cl)ccc1Cl [F309, 2-Chloro-5-((1R,3R)-2,2-dichloro-3-(3,5-dichlorophenyl)cyclopropane-1-carboxamido)-N-(3,5-difluoropyridin-2-yl)benzamide]			YFM (Biological Results, rating) [2]: A (80-100)
O=C(Nc1cc(F)cc([N+](=O)[O-])c1)c1cc(NC(=O)[C@H]2[C@H](c3cc(Cl)cc(Cl)c3)C2(Cl)Cl)ccc1Cl [F415, 2-Chloro-5-((1R,3R)-2,2-dichloro-3-(3,5-dichlorophenyl)cyclopropane-1-carboxamido)-N-(3-fluoro-5-nitrophenyl)benzamide]			YFM rating [2]: A (80-100)
CC(C)(C)OC(=O)N(C(=O)OC(C)(C)C)c1c(F)ccc(NC(=O)c2cc(NC(=O)[C@H]3[C@H](c4ccc(Cl)c(Cl)c4)C3(Cl)Cl)ccc2Cl)c1F [F500, tert-Butyl-N-((tert-butoxy)carbonyl)-N-(3-(2-chloro-5-((1R,3R)-2,2-dichloro-3-(3,4-dichlorophenyl)cyclopropane-1-carboxamido)benzamido)-2,6-difluorophenyl)carbamate]	50 to 100%	0 to 50%	
CC(C)(C)OC(=O)N(C(=O)OC(C)(C)C)c1c(F)ccc(NC(=O)c2cc(NC(=O)[C@H]3[C@H](c4ccc(F)c(Cl)c4)C3(Cl)Cl)ccc2Cl)c1F [F503, tert-Butyl-N-((tert-butoxy)carbonyl)-N-(3-(2-chloro-5-((1R,3R)-2,2-dichloro-3-(3-chloro-4-fluorophenyl)cyclopropane-1-carboxamido)benzamido)-2,6-difluorophenyl)carbamate]	50 to 100%	50 to 100%	
CC(C)(C)OC(=O)N(C(=O)OC(C)(C)C)c1c(F)ccc(NC(=O)c2cc(NC(=O)C3C(c4ccc(Cl)c(Br)c4)C3(Cl)Cl)ccc2Cl)c1F (stereo not drawn) [F513, tert-Butyl-N-((tert-butoxy)carbonyl)-N-(3-(5-(3-(3-bromo-4-chlorophenyl)-2,2-dichlorocyclopropane-1-carboxamido)-2-chlorobenzamido)-2,6-difluorophenyl)carbamate]	50 to 100%	50 to 100%	
CC(C)(C)OC(=O)N(C(=O)OC(C)(C)C)c1cc(NC(=O)c2cc(NC(=O)[C@H]3[C@H](c4cc(Cl)cc(Cl)c4)C3(Cl)Cl)ccc2Cl)c(F)cc1F [F519, tert-Butyl-N-((tert-butoxy)carbonyl)-N-(5-(2-chloro-5-((1R,3R)-2,2-dichloro-3-(3,5-dichlorophenyl)cyclopropane-1-carboxamido)benzamido)-2,4-difluorophenyl)carbamate]	50 to 100%	50 to 100%	
CC(C)(C)OC(=O)N(C(=O)OC(C)(C)C)c1cc(NC(=O)c2cc(NC(=O)[C@H]3[C@H](c4ccc(Cl)c(Cl)c4)C3(Cl)Cl)ccc2Cl)c(F)cc1F [F520, tert-Butyl-N-((tert-butoxy)carbonyl)-N-(5-(2-chloro-5-((1R,3R)-2,2-dichloro-3-(3,4-dichlorophenyl)cyclopropane-1-carboxamido)benzamido)-2,4-difluorophenyl)carbamate]	50 to 100%	50 to 100%	
O=C(Nc1ccc(F)cc1F)c1cc(NC(=O)C2C(c3cc(F)c(F)c(F)c3)C2(Cl)Cl)ccc1Cl (stereo not drawn) [F582, 2-Chloro-5-cis-(2,2-dichloro-3-(3,4,5-trifluorophenyl)cyclopropane-1-carboxamido)-N-(2,4-difluorophenyl)benzamide]			YFM rating [2]: A (80-100)
Nc1c(F)ccc(NC(=O)c2cc(NC(=O)C3C(c4cc(Cl)c(Cl)c(Br)c4)C3(Cl)Cl)ccc2Cl)c1F (stereo not drawn) [F621, N-(3-Amino-2,4-difluorophenyl)-5-(3-trans-(3-bromo-4,5-dichlorophenyl)-2,2-dichlorocyclopropane-1-carboxamido)-2-chlorobenzamide]	50 to 100%	50 to 100%	
Nc1c(F)ccc(NC(=O)c2cc(NC(=O)C3C(c4cc(F)cc(Br)c4)C3(Cl)Cl)ccc2Cl)c1F (stereo not drawn) [F622, N-(3-Amino-2,4-difluorophenyl)-5-(3-trans-(3-bromo-5-fluorophenyl)-2,2-dichlorocyclopropane-1-carboxamido)-2-chlorobenzamide]	50 to 100%	50 to 100%	
Nc1c(F)ccc(NC(=O)c2cc(NC(=O)C3C(c4cc(F)cc(C(F)(F)F)c4)C3(Cl)Cl)ccc2Cl)c1F (stereo not drawn) [F623, N-(3-Amino-2,4-difluorophenyl)-2-chloro-5-(2,2-dichloro-3-trans-(3-fluoro-5-(trifluoromethyl)phenyl)cyclopropane-1-carboxamido)benzamide]	50 to 100%	50 to 100%	
Nc1c(F)ccc(NC(=O)c2cc(NC(=O)C3C(c4ccc(F)c(C(F)(F)F)c4)C3(Cl)Cl)ccc2Cl)c1F (stereo not drawn) [F624, N-(3-Amino-2,4-difluorophenyl)-2-chloro-5-(2,2-dichloro-3-trans-(4-fluoro-3-(trifluoromethyl)phenyl)cyclopropane-1-carboxamido)benzamide]	50 to 100%	50 to 100%	
Nc1c(F)ccc(NC(=O)c2cc(NC(=O)C3C(c4ccc(F)c(Br)c4)C3(Cl)Cl)ccc2Cl)c1F (stereo not drawn) [F625, N-(3-Amino-2,4-difluorophenyl)-5-(3-trans-(3-bromo-4-fluorophenyl)-2,2-dichlorocyclopropane-1-carboxamido)-2-chlorobenzamide]	50 to 100%	50 to 100%	
Nc1c(F)ccc(NC(=O)c2cc(NC(=O)C3C(c4c(F)c(F)c(F)c(F)c4F)C3(Cl)Cl)ccc2Cl)c1F (stereo not drawn) [F626, N-(3-Amino-2,4-difluorophenyl)-2-chloro-5-(2,2-dichloro-3-trans-(perfluorophenyl)cyclopropane-1-carboxamido)benzamide]	50 to 100%	50 to 100%	
Nc1c(F)ccc(NC(=O)c2cc(NC(=O)C3C(c4cc(F)c(F)c(F)c4)C3(Cl)Cl)ccc2Cl)c1F (stereo not drawn) [F627, N-(3-Amino-2,4-difluorophenyl)-2-chloro-5-(2,2-dichloro-3-trans-(3,4,5-trifluorophenyl)cyclopropane-1-carboxamido)benzamide]	50 to 100%	50 to 100%	
O=C(Nc1ccc(F)cc1)c1cc(NC(=O)C2C(c3cc(Cl)cc(Cl)c3)C2(Cl)Cl)ccc1Cl (stereo not drawn) [F629, 2-Chloro-5-(2,2-dichloro-3-cis-(3,5-dichlorophenyl)cyclopropane-1-carboxamido)-N-(4-fluorophenyl)benzamide]	50 to 100%	50 to 100%	
O=C(Nc1ccc(F)cc1)c1cc(NC(=O)C2C(c3cc(Cl)cc(Cl)c3)C2(Cl)Br)ccc1Cl (stereo not drawn) [PF33, 5-(trans)-2-Bromo-2-chloro-3-(3,5-dichlorophenyl)cyclopropane-1-carboxamido)-2-chloro-N-(4-fluorophenyl)benzamide]	50 to 100%	50 to 100%	
N#Cc1ccc(NC(=O)c2cc(NC(=O)C3C(c4cc(Cl)cc(Cl)c4)C3(Cl)Cl)ccc2Cl)cc1Cl (stereo not drawn) [PF120, 2-Chloro-N-(3-chloro-4-cyanophenyl)-5-(trans)-2,2-dichloro-3-(3,5-dichlorophenyl)cyclopropane-1-carboxamido)benzamide]			YFM rating [2]: A (80-100)
